{
  "source": "paper doi:10.1101/2024.08.19.608619",
  "about": "“Discovery of potent SARS-CoV-2 nsp3 macrodomain inhibitors uncovers lack of translation to cellular antiviral response” (bioRxiv, 2024)",
  "assay_in_all_cases": "biochemical",
  "set-up_in_all_cases": "In vitro kinase panel profiling, per cent remaining kinase activity at 10 uM",
  "key": {"Plk3(h)": {"target": "Plk3(h) (Homo sapiens, UniProt Q9H4B4)", "sequence (Q9H4B4 whole entry)": "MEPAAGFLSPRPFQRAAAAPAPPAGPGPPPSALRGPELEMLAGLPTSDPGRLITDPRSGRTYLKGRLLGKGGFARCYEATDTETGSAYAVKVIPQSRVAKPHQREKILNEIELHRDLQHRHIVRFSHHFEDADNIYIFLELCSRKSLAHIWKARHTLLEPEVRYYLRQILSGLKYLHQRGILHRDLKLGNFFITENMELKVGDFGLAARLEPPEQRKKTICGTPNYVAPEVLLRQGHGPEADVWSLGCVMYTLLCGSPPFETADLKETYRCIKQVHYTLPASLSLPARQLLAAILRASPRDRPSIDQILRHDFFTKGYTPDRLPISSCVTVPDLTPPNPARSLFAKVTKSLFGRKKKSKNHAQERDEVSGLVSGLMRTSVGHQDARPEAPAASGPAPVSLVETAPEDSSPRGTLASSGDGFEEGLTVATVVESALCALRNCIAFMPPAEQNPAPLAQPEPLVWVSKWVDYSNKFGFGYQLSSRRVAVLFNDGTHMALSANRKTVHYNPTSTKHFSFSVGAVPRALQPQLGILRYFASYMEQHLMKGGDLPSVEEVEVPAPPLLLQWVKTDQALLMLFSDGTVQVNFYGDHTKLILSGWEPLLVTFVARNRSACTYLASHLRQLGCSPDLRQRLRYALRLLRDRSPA", "settings": "atp_concentration=70, read-out: % of control remaining", "from_the_text": "(§1) We derisk potential for off-target activity by profiling the compound in a CEREP panel, a standard secondary pharmacology assessment, as well as a kinase panel to derisk a potential hinge-binding motif in our leads, and a PARP panel to derisk activity against human […]. Reassuringly, the compounds are selective, with the only off-targets being moderate human CHRM2 and KOR receptors activity associated with ASAP-0011198."}, "Mnk2(h)": {"target": "T1, Mnk2(h) (Homo sapiens, UniProt Q9HBH9)", "T1 construct": "gene MKNK2", "T1 sequence (Q9HBH9 whole entry)": "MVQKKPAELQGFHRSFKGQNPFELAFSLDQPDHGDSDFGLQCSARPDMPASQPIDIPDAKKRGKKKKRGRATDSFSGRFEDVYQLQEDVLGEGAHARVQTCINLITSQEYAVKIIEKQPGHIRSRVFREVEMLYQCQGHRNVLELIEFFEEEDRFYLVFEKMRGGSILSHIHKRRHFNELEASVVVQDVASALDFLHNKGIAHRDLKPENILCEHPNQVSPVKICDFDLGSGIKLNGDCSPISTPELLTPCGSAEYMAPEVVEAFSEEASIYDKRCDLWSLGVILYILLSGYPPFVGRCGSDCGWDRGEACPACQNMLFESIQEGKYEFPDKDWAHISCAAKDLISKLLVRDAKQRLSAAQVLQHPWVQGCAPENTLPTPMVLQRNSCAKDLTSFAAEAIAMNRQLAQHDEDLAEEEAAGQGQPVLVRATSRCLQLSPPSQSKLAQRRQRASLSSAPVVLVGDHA", "settings": "atp_concentration=120, read-out: % of control remaining", "from_the_text": "as §1"}, "MST1(h)": {"target": "T2, MST1(h) (Homo sapiens, UniProt Q13043)", "T2 construct": "gene STK4", "T2 sequence (Q13043 1-487)": "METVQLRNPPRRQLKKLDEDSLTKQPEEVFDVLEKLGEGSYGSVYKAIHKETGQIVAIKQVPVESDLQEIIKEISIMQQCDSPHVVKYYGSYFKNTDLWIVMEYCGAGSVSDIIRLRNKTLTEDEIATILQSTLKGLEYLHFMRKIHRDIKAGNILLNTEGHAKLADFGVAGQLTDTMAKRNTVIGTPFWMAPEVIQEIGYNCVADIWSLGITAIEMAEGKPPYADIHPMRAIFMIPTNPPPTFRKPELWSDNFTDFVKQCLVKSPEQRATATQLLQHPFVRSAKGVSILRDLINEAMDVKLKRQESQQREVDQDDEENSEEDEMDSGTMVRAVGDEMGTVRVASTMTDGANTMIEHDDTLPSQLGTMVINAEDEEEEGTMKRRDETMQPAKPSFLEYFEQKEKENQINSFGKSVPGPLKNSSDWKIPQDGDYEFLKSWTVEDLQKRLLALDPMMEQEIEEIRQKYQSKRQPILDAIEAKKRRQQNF", "settings": "atp_concentration=90, read-out: % of control remaining", "from_the_text": "as §1"}, "CDK7/cyclinH/MAT1(h)": {"target": "CDK7/cyclinH/MAT1(h) (Homo sapiens, UniProt P50613)", "sequence (P50613 whole entry)": "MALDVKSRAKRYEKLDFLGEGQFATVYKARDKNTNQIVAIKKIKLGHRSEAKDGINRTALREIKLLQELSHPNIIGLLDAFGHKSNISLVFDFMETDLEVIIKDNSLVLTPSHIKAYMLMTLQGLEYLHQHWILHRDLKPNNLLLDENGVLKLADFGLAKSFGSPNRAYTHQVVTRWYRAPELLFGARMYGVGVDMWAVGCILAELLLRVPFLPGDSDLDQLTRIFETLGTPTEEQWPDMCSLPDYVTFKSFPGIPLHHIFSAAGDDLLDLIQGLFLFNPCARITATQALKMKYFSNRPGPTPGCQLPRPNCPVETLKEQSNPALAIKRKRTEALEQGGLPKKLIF", "sequence (P51946 whole entry partner)": "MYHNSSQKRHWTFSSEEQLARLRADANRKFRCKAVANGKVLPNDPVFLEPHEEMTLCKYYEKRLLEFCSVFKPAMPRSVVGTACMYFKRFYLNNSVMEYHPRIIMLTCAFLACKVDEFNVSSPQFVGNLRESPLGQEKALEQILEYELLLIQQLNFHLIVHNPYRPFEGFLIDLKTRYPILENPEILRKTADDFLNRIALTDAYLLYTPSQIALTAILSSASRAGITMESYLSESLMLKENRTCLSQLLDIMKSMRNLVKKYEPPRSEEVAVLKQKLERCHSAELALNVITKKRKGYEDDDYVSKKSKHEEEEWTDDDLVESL", "sequence (P51948 whole entry partner)": "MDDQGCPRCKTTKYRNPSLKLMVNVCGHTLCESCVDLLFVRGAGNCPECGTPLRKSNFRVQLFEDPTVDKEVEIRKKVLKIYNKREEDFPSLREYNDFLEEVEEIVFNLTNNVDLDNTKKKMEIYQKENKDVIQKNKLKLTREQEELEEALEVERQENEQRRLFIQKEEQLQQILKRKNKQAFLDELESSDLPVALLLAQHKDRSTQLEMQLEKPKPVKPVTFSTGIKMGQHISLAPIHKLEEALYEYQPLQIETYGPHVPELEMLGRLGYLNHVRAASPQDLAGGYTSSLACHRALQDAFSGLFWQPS", "settings": "atp_concentration=90, read-out: % of control remaining", "from_the_text": "as §1"}, "ALK(h)": {"target": "ALK(h) (Homo sapiens, UniProt Q9UM73)", "sequence (Q9UM73 whole entry)": "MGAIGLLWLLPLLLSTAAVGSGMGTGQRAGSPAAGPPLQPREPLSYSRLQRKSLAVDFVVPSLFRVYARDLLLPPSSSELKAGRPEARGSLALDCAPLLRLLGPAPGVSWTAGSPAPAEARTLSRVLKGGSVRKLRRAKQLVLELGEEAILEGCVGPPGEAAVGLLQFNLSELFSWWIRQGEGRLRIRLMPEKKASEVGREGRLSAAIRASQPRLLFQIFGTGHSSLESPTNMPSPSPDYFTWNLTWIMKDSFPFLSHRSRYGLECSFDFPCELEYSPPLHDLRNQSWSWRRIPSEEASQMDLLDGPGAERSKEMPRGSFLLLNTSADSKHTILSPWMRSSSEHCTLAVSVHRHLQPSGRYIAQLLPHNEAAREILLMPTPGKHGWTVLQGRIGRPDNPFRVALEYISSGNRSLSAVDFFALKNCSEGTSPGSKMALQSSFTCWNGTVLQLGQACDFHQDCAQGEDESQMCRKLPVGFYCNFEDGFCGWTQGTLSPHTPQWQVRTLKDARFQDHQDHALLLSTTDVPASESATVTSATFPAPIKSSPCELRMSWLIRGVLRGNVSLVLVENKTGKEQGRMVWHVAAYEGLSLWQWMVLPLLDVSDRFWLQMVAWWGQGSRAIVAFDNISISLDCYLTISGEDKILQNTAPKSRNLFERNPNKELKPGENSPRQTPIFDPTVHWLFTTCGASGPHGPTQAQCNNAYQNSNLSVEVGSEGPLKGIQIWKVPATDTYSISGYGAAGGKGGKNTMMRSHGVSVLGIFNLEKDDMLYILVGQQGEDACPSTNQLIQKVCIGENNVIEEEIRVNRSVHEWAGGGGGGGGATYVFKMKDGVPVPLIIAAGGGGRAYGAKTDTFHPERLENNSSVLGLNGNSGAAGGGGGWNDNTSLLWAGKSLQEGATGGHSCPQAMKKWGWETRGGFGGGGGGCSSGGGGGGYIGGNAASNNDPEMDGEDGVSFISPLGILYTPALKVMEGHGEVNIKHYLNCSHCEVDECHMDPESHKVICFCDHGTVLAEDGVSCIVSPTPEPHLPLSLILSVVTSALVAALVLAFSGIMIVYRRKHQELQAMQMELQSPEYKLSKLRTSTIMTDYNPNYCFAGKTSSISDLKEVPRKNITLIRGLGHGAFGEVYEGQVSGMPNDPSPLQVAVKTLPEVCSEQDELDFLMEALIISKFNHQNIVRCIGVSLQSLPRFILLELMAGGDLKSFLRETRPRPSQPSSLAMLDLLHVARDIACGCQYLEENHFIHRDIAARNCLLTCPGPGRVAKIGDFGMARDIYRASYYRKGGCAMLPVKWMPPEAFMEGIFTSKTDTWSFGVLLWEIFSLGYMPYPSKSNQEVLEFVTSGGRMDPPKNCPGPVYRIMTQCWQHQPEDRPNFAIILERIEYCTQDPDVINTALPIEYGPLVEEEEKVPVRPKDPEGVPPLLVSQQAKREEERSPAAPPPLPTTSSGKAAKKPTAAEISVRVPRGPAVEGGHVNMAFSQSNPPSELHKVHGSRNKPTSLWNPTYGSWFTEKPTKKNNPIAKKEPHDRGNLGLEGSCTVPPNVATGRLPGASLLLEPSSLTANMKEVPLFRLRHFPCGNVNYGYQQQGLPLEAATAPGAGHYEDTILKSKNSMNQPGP", "settings": "atp_concentration=200, read-out: % of control remaining", "from_the_text": "as §1"}, "Lyn(h)": {"target": "Lyn(h) (Homo sapiens, UniProt P07948)", "sequence (P07948 whole entry)": "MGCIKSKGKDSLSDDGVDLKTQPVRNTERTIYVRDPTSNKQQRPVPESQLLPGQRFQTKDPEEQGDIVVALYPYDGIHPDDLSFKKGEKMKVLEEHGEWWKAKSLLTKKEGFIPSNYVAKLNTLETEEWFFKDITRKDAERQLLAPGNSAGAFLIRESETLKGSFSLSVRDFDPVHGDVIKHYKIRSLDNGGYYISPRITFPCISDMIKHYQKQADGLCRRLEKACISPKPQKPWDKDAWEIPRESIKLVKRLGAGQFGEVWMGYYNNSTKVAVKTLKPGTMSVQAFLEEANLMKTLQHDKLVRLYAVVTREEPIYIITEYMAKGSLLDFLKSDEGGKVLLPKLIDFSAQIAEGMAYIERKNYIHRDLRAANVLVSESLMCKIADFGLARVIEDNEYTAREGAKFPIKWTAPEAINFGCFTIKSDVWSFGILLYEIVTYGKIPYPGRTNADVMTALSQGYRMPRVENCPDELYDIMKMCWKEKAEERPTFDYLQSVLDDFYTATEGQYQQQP", "settings": "atp_concentration=70, read-out: % of control remaining", "from_the_text": "as §1"}, "Aurora-A(h)": {"target": "T3, Aurora-A(h) (Homo sapiens, UniProt O14965)", "T3 construct": "gene AURKA", "T3 sequence (O14965 1-403)": "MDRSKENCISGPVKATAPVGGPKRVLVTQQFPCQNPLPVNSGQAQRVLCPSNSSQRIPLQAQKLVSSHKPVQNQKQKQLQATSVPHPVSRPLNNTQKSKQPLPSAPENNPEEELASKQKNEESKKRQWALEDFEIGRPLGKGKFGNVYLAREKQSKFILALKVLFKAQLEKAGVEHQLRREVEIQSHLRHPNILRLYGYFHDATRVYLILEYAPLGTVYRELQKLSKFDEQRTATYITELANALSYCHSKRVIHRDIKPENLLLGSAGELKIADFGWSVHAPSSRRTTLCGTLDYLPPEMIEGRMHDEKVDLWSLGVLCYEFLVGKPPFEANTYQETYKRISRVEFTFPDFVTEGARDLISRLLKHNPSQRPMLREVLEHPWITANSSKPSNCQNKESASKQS", "settings": "atp_concentration=15, read-out: % of control remaining", "from_the_text": "as §1"}, "PRAK(h)": {"target": "T4, PRAK(h) (Homo sapiens, UniProt Q8IW41)", "T4 construct": "gene MAPKAPK5", "T4 sequence (Q8IW41 1-473)": "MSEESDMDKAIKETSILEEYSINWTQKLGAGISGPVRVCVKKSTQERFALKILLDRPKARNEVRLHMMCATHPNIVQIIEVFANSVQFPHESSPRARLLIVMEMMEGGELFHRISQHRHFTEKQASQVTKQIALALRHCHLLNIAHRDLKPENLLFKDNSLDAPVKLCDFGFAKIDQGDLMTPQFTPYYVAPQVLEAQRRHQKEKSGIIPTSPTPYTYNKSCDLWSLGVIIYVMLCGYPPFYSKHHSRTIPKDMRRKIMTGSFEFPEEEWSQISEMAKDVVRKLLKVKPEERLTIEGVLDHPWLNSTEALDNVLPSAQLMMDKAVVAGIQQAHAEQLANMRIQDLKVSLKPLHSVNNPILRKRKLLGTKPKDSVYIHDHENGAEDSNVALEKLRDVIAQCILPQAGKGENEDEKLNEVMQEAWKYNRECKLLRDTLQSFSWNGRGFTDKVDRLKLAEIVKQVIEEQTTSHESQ", "settings": "atp_concentration=15, read-out: % of control remaining", "from_the_text": "as §1"}, "PKA(h)": {"target": "T5, PKA(h) (Homo sapiens, UniProt P17612)", "T5 construct": "gene PRKACA", "settings": "atp_concentration=10, read-out: % of control remaining", "from_the_text": "as §1"}},
  "note": "Read-outs that look alike come from different tables or passages of the source.",
  "data": [
    {"smiles": "CC(C)[C@H](Nc1ncnc2[nH]c(-c3cnn(C)c3C#N)cc12)c1ccc2c(n1)OCCO2", "note": "[ASAP-0010715]", "values": [
      {"measurement": "remaining activity at 10 µM", "setting": "Plk3(h); batch_name=ASAP-0010715-002", "value": 102, "unit": "%"},
      {"measurement": "remaining activity at 10 µM", "setting": "Mnk2(h); batch_name=ASAP-0010715-002", "value": 95, "unit": "%"},
      {"measurement": "remaining activity at 10 µM", "setting": "MST1(h); batch_name=ASAP-0010715-002", "value": 120, "unit": "%"},
      {"measurement": "remaining activity at 10 µM", "setting": "CDK7/cyclinH/MAT1(h); batch_name=ASAP-0010715-002", "value": 98, "unit": "%"},
      {"measurement": "remaining activity at 10 µM", "setting": "ALK(h); batch_name=ASAP-0010715-002", "value": 116, "unit": "%"},
      {"measurement": "remaining activity at 10 µM", "setting": "Lyn(h); batch_name=ASAP-0010715-002", "value": 79, "unit": "%"},
      {"measurement": "remaining activity at 10 µM", "setting": "Aurora-A(h); batch_name=ASAP-0010715-002", "value": 53, "unit": "%"},
      {"measurement": "remaining activity at 10 µM", "setting": "PRAK(h); batch_name=ASAP-0010715-002", "value": 84, "unit": "%"},
      {"measurement": "remaining activity at 10 µM", "setting": "PKA(h); batch_name=ASAP-0010715-002", "value": 82, "unit": "%"}
    ]},
    {"smiles": "CC(C)[C@@H](Nc1ncnc2[nH]c(-c3cnn(C)c3C#N)cc12)c1ccc2c(n1)OCCO2", "note": "[ASAP-0010716]", "values": [
      {"measurement": "remaining activity at 10 µM", "setting": "Plk3(h); batch_name=ASAP-0010716-002", "value": 89, "unit": "%"},
      {"measurement": "remaining activity at 10 µM", "setting": "Mnk2(h); batch_name=ASAP-0010716-002", "value": 83, "unit": "%"},
      {"measurement": "remaining activity at 10 µM", "setting": "MST1(h); batch_name=ASAP-0010716-002", "value": 121, "unit": "%"},
      {"measurement": "remaining activity at 10 µM", "setting": "CDK7/cyclinH/MAT1(h); batch_name=ASAP-0010716-002", "value": 102, "unit": "%"},
      {"measurement": "remaining activity at 10 µM", "setting": "ALK(h); batch_name=ASAP-0010716-002", "value": 106, "unit": "%"},
      {"measurement": "remaining activity at 10 µM", "setting": "Lyn(h); batch_name=ASAP-0010716-002", "value": 96, "unit": "%"},
      {"measurement": "remaining activity at 10 µM", "setting": "Aurora-A(h); batch_name=ASAP-0010716-002", "value": 58, "unit": "%"},
      {"measurement": "remaining activity at 10 µM", "setting": "PRAK(h); batch_name=ASAP-0010716-002", "value": 89, "unit": "%"},
      {"measurement": "remaining activity at 10 µM", "setting": "PKA(h); batch_name=ASAP-0010716-002", "value": 93, "unit": "%"}
    ]},
    {"smiles": "CNCc1cc(-c2cc3c(N[C@@H](c4ccc5c(c4)S(=O)(=O)CCC5)C(C)C)ncnc3[nH]2)co1", "note": "[ASAP-0011176]", "values": [
      {"measurement": "remaining activity at 10 µM", "setting": "Plk3(h); batch_name=ASAP-0011176-002", "value": 124, "unit": "%"},
      {"measurement": "remaining activity at 10 µM", "setting": "Mnk2(h); batch_name=ASAP-0011176-002", "value": 94, "unit": "%"},
      {"measurement": "remaining activity at 10 µM", "setting": "MST1(h); batch_name=ASAP-0011176-002", "value": 108, "unit": "%"},
      {"measurement": "remaining activity at 10 µM", "setting": "CDK7/cyclinH/MAT1(h); batch_name=ASAP-0011176-002", "value": 100, "unit": "%"},
      {"measurement": "remaining activity at 10 µM", "setting": "ALK(h); batch_name=ASAP-0011176-002", "value": 99, "unit": "%"},
      {"measurement": "remaining activity at 10 µM", "setting": "Lyn(h); batch_name=ASAP-0011176-002", "value": 47, "unit": "%"},
      {"measurement": "remaining activity at 10 µM", "setting": "Aurora-A(h); batch_name=ASAP-0011176-002", "value": 73, "unit": "%"},
      {"measurement": "remaining activity at 10 µM", "setting": "PRAK(h); batch_name=ASAP-0011176-002", "value": 122, "unit": "%"},
      {"measurement": "remaining activity at 10 µM", "setting": "PKA(h); batch_name=ASAP-0011176-002", "value": 96, "unit": "%"}
    ]},
    {"smiles": "CC(C)C(Nc1ncnc2[nH]c(C(=O)NC3CCN(C)C3)cc12)c1ccc2c(c1)S(=O)(=O)CCC2", "note": "(stereo not drawn) [ASAP-0011198]", "values": [
      {"measurement": "remaining activity at 10 µM", "setting": "Plk3(h); batch_name=ASAP-0011198-002", "value": 98, "unit": "%"},
      {"measurement": "remaining activity at 10 µM", "setting": "Mnk2(h); batch_name=ASAP-0011198-002", "value": 99, "unit": "%"},
      {"measurement": "remaining activity at 10 µM", "setting": "MST1(h); batch_name=ASAP-0011198-002", "value": 122, "unit": "%"},
      {"measurement": "remaining activity at 10 µM", "setting": "CDK7/cyclinH/MAT1(h); batch_name=ASAP-0011198-002", "value": 101, "unit": "%"},
      {"measurement": "remaining activity at 10 µM", "setting": "ALK(h); batch_name=ASAP-0011198-002", "value": 106, "unit": "%"},
      {"measurement": "remaining activity at 10 µM", "setting": "Lyn(h); batch_name=ASAP-0011198-002", "value": 107, "unit": "%"},
      {"measurement": "remaining activity at 10 µM", "setting": "Aurora-A(h); batch_name=ASAP-0011198-002", "value": 97, "unit": "%"},
      {"measurement": "remaining activity at 10 µM", "setting": "PRAK(h); batch_name=ASAP-0011198-002", "value": 111, "unit": "%"},
      {"measurement": "remaining activity at 10 µM", "setting": "PKA(h); batch_name=ASAP-0011198-002", "value": 89, "unit": "%"}
    ]}
  ]
}
